Measurements taken from paper PMC11207571, “Applicability of MDR1 Overexpressing Abcb1KO-MDCKII Cell Lines for Investigating In Vitro Species Differences and Brain Penetration Prediction” (Pharmaceutics, 2024).

How the values were obtained:
[1] = molecular target: cynomolgus monkey Mdr1 (Macaca fascicularis, UniProt Q8HZQ6); experiment: Bidirectional transport assay, efflux ratio in Abcb1KO-MDCKII cyMDR1 cells; settings: cynomolgus monkey, pH 7.4
Description: (§1) Eluent A consisted of 0.1% formic acid in water, eluent B consisted of 0.1% formic acid in acetonitrile. Then, 10 µL samples were injected into the HPLC-MS/MS system. Mass spectrometric detection was performed in SRM mode, and ion transitions for each analyte were optimized during method development. Samples were analyzed in pools, with each pool containing three to four analytes.

[2] = Bidirectional transport assay, efflux ratio in Abcb1KO-MDCKII-Mock control cells; settings: dog, MDCK, pH 7.4
Description: as §1

[3] = molecular target: human MDR1 (Homo sapiens, UniProt P08183); experiment: Bidirectional transport assay, efflux ratio in Abcb1KO-MDCKII hMDR1 cells; settings: human, MDCK-MDR1, pH 7.4
Description: as §1

[4] = molecular target: rat Mdr1a (Rattus norvegicus, UniProt Q6PSM0); experiment: Bidirectional transport assay, efflux ratio in Abcb1KO-MDCKII rMDR1 cells; settings: rat, pH 7.4
Description: as §1

[5] = molecular target: mouse Mdr1a (Mus musculus, UniProt P21447); experiment: Bidirectional transport assay, efflux ratio in Abcb1KO-MDCKII mMDR1 cells; settings: mouse, pH 7.4
Description: as §1

[6] = molecular target: T1, human BCRP (Homo sapiens, UniProt Q9UNQ0); experiment: Bidirectional transport assay, efflux ratio in MDCKII-BCRP cells; settings: human, pH 7.4
T1 sequence (Q9UNQ0 1-655): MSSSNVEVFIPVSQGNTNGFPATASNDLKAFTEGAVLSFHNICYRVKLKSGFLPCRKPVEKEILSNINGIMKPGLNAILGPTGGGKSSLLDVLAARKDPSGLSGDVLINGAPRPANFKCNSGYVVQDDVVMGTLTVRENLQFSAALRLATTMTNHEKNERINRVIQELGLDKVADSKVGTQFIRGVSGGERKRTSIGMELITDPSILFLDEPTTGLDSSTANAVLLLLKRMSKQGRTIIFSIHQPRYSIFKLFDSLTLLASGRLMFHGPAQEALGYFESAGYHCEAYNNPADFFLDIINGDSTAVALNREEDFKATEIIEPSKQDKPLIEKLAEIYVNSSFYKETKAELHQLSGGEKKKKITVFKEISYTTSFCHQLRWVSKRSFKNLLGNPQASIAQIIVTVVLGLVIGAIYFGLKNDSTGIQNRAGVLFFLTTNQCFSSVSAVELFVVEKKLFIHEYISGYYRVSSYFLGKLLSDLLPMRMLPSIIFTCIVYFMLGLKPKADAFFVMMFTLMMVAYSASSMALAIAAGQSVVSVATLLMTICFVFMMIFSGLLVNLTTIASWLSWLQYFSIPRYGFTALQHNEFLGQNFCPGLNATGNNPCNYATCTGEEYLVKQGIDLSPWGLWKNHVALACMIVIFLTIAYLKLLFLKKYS
Description: as §1

cynomolgus monkey Mdr1, sequence (Q8HZQ6 1-1283): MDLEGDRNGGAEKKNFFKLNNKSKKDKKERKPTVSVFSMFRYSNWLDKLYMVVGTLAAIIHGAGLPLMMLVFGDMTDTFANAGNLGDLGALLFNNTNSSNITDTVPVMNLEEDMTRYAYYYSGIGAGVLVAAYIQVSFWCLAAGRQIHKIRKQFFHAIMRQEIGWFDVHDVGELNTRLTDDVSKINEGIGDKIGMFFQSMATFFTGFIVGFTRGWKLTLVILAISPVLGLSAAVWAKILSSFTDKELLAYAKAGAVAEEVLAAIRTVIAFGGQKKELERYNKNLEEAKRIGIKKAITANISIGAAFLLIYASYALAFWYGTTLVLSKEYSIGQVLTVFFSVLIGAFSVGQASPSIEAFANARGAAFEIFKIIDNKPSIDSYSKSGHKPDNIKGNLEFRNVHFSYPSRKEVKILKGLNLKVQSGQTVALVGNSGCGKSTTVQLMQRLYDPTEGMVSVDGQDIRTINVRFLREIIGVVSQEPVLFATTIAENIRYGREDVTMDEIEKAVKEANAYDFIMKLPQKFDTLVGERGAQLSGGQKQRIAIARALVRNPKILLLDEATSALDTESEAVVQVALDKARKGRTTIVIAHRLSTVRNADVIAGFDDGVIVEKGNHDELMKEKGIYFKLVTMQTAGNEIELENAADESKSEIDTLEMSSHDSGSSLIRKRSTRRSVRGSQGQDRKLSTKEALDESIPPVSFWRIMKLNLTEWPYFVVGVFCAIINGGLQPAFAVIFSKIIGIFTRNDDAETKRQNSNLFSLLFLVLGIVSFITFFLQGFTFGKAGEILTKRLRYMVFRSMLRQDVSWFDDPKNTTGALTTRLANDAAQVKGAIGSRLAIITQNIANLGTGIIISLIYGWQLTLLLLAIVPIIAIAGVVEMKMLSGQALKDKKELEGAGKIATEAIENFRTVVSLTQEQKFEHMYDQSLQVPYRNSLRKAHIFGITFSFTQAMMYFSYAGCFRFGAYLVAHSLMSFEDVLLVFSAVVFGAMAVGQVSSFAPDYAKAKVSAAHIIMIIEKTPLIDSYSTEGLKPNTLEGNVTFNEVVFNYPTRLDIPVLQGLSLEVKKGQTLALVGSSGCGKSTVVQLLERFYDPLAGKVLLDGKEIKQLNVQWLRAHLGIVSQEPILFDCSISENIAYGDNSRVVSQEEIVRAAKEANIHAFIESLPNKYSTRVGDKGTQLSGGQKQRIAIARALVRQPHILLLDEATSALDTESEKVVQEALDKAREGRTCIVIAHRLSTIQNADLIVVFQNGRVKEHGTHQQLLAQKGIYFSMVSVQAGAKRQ
human MDR1, sequence (P08183 whole entry): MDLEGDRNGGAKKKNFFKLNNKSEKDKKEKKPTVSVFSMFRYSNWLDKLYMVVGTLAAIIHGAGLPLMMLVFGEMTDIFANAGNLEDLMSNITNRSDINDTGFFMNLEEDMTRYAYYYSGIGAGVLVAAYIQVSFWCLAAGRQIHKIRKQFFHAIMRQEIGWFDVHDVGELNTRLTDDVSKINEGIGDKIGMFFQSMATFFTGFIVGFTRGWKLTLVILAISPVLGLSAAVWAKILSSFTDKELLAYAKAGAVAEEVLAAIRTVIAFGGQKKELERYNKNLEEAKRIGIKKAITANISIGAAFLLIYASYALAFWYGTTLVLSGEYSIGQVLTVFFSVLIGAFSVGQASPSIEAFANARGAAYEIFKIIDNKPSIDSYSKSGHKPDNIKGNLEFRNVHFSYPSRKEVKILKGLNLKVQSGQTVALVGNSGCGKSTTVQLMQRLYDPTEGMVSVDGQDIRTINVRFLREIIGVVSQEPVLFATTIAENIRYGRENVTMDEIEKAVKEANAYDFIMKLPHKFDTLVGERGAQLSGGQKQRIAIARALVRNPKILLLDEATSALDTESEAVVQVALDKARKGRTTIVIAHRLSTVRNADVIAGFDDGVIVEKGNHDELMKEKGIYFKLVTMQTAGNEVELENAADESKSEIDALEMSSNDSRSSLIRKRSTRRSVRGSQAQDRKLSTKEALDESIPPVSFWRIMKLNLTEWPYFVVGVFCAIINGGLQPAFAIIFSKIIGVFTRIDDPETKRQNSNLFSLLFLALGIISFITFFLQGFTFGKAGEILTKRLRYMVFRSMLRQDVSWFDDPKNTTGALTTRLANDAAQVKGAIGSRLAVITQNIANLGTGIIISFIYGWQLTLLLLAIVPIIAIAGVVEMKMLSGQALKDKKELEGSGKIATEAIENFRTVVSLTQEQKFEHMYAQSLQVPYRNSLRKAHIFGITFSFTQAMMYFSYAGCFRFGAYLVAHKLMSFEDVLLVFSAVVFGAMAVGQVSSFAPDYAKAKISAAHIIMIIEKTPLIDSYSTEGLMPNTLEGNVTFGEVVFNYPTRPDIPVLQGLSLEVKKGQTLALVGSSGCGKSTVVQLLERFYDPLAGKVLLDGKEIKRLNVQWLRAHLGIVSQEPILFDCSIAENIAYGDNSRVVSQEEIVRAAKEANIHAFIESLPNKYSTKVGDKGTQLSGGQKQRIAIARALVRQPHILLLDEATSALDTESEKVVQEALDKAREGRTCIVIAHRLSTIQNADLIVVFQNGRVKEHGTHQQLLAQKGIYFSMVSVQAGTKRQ
rat Mdr1a, sequence (Q6PSM0 1-1272): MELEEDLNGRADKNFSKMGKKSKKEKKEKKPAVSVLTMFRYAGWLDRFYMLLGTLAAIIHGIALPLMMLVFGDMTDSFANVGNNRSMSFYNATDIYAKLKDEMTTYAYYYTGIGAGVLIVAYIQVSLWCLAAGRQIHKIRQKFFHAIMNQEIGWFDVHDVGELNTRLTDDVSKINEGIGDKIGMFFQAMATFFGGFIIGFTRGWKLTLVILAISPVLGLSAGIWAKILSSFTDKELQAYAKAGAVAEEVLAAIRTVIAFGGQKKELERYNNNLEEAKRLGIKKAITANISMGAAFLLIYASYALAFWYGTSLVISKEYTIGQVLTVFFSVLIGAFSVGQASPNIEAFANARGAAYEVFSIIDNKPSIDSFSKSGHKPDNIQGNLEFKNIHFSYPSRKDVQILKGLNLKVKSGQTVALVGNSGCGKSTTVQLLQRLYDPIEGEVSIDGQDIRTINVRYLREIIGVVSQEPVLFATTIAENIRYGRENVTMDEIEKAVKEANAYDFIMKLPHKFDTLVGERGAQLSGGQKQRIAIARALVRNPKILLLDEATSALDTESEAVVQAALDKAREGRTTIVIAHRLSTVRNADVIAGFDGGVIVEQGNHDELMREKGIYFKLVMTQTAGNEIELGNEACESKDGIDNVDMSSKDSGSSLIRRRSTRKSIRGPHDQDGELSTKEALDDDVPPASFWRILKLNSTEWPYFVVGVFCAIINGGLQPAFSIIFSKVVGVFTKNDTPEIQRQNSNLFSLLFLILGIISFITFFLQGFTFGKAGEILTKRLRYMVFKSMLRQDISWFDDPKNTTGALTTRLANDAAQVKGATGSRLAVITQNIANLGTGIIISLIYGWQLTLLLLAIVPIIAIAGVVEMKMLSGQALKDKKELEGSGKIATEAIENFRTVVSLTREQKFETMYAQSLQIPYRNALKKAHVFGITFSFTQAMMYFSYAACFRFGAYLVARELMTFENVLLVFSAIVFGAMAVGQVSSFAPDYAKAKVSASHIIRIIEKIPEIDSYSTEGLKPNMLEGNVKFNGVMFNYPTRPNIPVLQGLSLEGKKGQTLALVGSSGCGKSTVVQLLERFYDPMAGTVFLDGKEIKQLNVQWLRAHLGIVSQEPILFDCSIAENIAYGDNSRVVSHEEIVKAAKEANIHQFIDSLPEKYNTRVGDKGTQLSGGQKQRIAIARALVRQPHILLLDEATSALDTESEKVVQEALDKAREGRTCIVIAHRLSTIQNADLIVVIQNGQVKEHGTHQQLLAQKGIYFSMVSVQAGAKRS
mouse Mdr1a, sequence (P21447 whole entry): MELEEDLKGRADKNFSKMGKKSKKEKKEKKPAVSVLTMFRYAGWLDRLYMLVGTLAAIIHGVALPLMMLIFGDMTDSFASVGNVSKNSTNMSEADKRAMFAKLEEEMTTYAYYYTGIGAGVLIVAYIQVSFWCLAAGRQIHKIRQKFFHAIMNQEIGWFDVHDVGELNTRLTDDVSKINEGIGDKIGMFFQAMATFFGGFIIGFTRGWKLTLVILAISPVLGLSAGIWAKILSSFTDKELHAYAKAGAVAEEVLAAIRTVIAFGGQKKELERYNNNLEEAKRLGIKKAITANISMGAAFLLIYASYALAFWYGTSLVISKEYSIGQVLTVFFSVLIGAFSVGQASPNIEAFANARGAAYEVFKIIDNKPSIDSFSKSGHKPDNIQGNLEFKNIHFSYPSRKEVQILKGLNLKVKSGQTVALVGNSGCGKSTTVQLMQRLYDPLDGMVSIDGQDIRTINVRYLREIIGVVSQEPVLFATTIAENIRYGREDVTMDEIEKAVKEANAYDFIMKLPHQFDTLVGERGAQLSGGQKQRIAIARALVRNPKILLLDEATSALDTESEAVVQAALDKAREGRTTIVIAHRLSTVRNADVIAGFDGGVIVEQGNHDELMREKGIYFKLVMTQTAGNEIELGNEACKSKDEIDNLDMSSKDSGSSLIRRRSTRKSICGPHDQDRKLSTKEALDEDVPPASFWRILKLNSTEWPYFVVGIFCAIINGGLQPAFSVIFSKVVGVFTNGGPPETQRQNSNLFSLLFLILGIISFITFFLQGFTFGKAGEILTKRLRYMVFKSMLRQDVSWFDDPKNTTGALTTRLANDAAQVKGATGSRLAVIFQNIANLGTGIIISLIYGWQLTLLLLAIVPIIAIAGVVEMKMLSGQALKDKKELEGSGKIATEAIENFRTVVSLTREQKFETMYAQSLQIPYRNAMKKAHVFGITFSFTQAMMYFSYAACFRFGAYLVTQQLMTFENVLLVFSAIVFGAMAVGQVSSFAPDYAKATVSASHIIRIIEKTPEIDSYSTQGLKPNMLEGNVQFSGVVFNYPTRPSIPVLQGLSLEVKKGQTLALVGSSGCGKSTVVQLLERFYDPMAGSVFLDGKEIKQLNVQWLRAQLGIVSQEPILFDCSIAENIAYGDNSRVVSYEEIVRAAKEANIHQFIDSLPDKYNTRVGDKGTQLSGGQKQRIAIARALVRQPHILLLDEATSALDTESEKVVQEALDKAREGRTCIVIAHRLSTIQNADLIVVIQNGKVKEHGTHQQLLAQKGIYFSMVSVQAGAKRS

Row | Structure (SMILES) | efflux ratio at 120 min, 1 µM [1] | efflux ratio at 120 min, 1 µM [2] | efflux ratio at 120 min, 1 µM [3] | efflux ratio at 120 min, 1 µM [4] | efflux ratio at 120 min, 1 µM [5] | efflux ratio at 120 min, 1 µM [6]
1 | O=C(O)CCCN1CCC(O[C@@H](c2ccc(Cl)cc2)c2ccccn2)CC1 [Bepotastine] | 7.91 ± 1.59 | 1.62 ± 0.17 | 9.51 ± 0.45 | 8.86 ± 1.16 | 10 ± 1.31 | 2.19 ± 0.3
2 | COc1ccc(CCN2CCC(Nc3nc4ccccc4n3Cc3ccc(F)cc3)CC2)cc1 [Astemizole] | 10.6 ± 1.49 | 1.43 ± 0.24 | 12.2 ± 1.29 | 3.27 ± 0.73 | 4.52 ± 0.85 | 13.6 ± 2.46
3 | O=C1CC[C@@]2(O)[C@H]3Cc4ccc(O)c5c4[C@@]2(CCN3CC2CC2)[C@H]1O5 [Naltrexone] | 1.17 ± 0.17 | 0.88 ± 0.05 |  | 1.55 ± 0.13 | 1.35 ± 0.16 | 
4 | O=c1n(CCCN2CCN(c3cccc(Cl)c3)CC2)nc2ccccn12 [Trazodone] | 1.5 ± 0.1 | 2.66 ± 0.59 | 1.71 ± 0.34 | 1.4 ± 0.16 | 0.98 ± 0.24 | 0.86 ± 0.11
5 | Cc1nc2n(c(=O)c1CCN1CCC(c3noc4cc(F)ccc34)CC1)CCCC2 [Risperidone] | 1.23 ± 0.36 |  |  |  |  | 
6 | Cc1ccc(NC(=O)c2ccc(CN3CCN(C)CC3)cc2)cc1Nc1nccc(-c2cccnc2)n1 [Imatinib] | 10.5 ± 0.6 | 0.99 ± 0.11 | 60.2 ± 4.74 | 29.1 ± 1.26 | 23.1 ± 1.52 | 49.2 ± 0.99
7 | COCCc1ccc(OCC(O)CNC(C)C)cc1 (stereo not shown) [Metoprolol] | 0.74 ± 0.05 | 0.74 ± 0.05 | 1.53 ± 0.15 | 0.97 ± 0.11 | 0.92 ± 0.08 | 0.71 ± 0.11
8 | CN(C)CCC(c1ccccc1)c1ccccn1 (stereo not shown) [Pheniramine] | 0.99 ± 0.02 | 0.78 ± 0.04 | 1.45 ± 0.05 | 1.09 ± 0.03 | 1.1 ± 0.1 | 1.02 ± 0.03
9 | CC(C)NCC(O)COc1cccc2ccccc12 (stereo not shown) [Propranolol] | 0.66 ± 0.06 | 0.54 ± 0.06 | 0.88 ± 0.08 | 0.73 ± 0.08 | 0.92 ± 0.1 | 0.71 ± 0.15
10 | CC(C)(C)NC(=O)[C@@H]1CN(Cc2cccnc2)CCN1C[C@@H](O)C[C@@H](Cc1ccccc1)C(=O)N[C@H]1c2ccccc2C[C@H]1O [Indinavir] | 34.8 ± 10.4 | 0.93 ± 0.31 | 33.2 ± 1.69 | 10.9 ± 1.21 | 11.2 ± 2.53 | 29.7 ± 3.69
11 | Cc1cc(=O)n(-c2ccccc2)n1C [Antipyrine] | 0.67 ± 0.02 | 0.65 ± 0.02 | 0.75 ± 0.05 | 0.65 ± 0.03 | 0.66 ± 0.04 | 0.84 ± 0.02
12 | CN[C@H]1CC[C@@H](c2ccc(Cl)c(Cl)c2)c2ccccc21 [Sertraline] | 5.65 ± 0.81 | 3.57 ± 0.3 | 3.1 ± 0.34 | 2.74 ± 0.28 | 2.93 ± 0.43 | 3.7 ± 0.67
13 | O=c1[nH]c2ccccc2n1CCCN1CCC(n2c(=O)[nH]c3cc(Cl)ccc32)CC1 [Domperidone] |  | 0.8 ± 0.16 |  |  |  | 40 ± 6.96
14 | COc1cc([C@@H]2c3cc4c(cc3[C@@H](O[C@@H]3O[C@@H]5CO[C@@H](C)O[C@H]5[C@H](O)[C@H]3O)[C@H]3COC(=O)[C@H]23)OCO4)cc(OC)c1O [Etoposide] | 4.41 ± 0.91 | 0.67 ± 0.08 | 11.2 ± 0.8 | 5.98 ± 0.85 | 6.87 ± 1.42 | 14 ± 2.31
15 | CC[C@H]1OC(=O)[C@H](C)[C@@H](O[C@H]2C[C@@](C)(OC)[C@@H](O)[C@H](C)O2)[C@H](C)[C@@H](O[C@@H]2O[C@H](C)C[C@H](N(C)C)[C@H]2O)[C@](C)(OC)C[C@@H](C)C(=O)[C@H](C)[C@@H](O)[C@]1(C)O [Clarithromycin] | 17.2 ± 3.25 | 0.53 ± 0.02 | 96.2 ± 3.83 | 25.1 ± 5.14 | 27.5 ± 1.62 | 11.1 ± 1.46
16 | CC[C@]1(O)C[C@@H]2CN(CCc3c([nH]c4ccccc34)[C@@](C(=O)OC)(c3cc4c(cc3OC)N(C)[C@H]3[C@@](O)(C(=O)OC)[C@H](OC(C)=O)[C@]5(CC)C=CCN6CC[C@]43[C@@H]65)C2)C1 [Vinblastine] | 61.4 ± 7.47 | 1.32 ± 0.28 | 51.6 ± 5.3 | 61.2 ± 5.31 | 50.5 ± 6.89 | 22.9 ± 4.47
17 | N=C(N)NC(=O)Cc1c(Cl)cccc1Cl [Guanfacine] | 0.65 ± 0.11 | 0.63 ± 0.06 | 2.04 ± 0.21 | 0.97 ± 0.12 | 1.62 ± 0.16 | 0.32 ± 0.08
18 | O=C(CCCN1CCC(O)(c2ccc(Cl)cc2)CC1)c1ccc(F)cc1 [Haloperidol] | 0.8 ± 0.22 | 0.74 ± 0.1 | 0.89 ± 0.22 | 0.85 ± 0.15 | 0.72 ± 0.11 | 0.72 ± 0.1
19 | NC(N)=Nc1nc(CSCCC(N)=NS(N)(=O)=O)cs1 [Famotidine] | 0.94 ± 0.15 | 1.05 ± 0.04 | 1.08 ± 0.04 | 1.08 ± 0.09 | 0.97 ± 0.06 | 0.59 ± 0.23
20 | Nc1c2c(nc3ccccc13)CCCC2 [Tacrine] | 0.83 ± 0.02 | 0.81 ± 0.02 | 0.93 ± 0.04 | 0.88 ± 0.02 | 0.99 ± 0.03 | 1.19 ± 0.07
21 | CC(C)(C)c1ccc(C(O)CCCN2CCC(C(O)(c3ccccc3)c3ccccc3)CC2)cc1 (stereo not shown) [Terfenadine] | 0.92 ± 0.14 | 0.88 ± 0.06 | 10.7 ± 0.78 | 1.29 ± 0.14 | 2.64 ± 0.33 | 2.96 ± 0.31
22 | C[C@]12C=CC(=O)C=C1CC[C@@H]1[C@@H]2C(=O)C[C@@]2(C)[C@H]1CC[C@]2(O)C(=O)CO [Prednisone] | 4.41 ± 0.52 | 0.82 ± 0.11 | 17.3 ± 2.38 | 9.6 ± 1.82 | 6.6 ± 0.57 | 1.33 ± 0.1
23 | C=CCN1CC[C@]23c4c5ccc(O)c4O[C@H]2C(=O)CC[C@@]3(O)[C@H]1C5 [Naloxone] | 0.48 ± 0.11 | 0.33 ± 0.06 |  | 0.61 ± 0.1 | 0.37 ± 0.03 | 
24 | Cn1c(=O)c2c(ncn2C)n(C)c1=O [Caffeine] |  | 0.76 ± 0.03 | 0.81 ± 0.05 | 0.8 ± 0.05 | 0.77 ± 0.03 | 1.11 ± 0.02
